Laboratory results taken from PubChem BioAssay AID1982 (Sanford-Burnham Center for Chemical Genomics, 2009).
Activity calls are given as the source filed them. The rule behind the calls is not given here.

Key:
Experiment in all cases: kinase panel binding selectivity, selectivity assay, biochemical, KINOMEscan (AID 1982)
[1] = molecular target: Serine/threonine-protein kinase D1 (Homo sapiens) (UniProt Q15139); conditions: KINOMEscan 353-kinase binding panel, qPCR; PRKD1; at 10 µM; stronger effect = lower value
[2] = molecular target: Vascular endothelial growth factor receptor 3 (Homo sapiens) (UniProt P35916); conditions: KINOMEscan 353-kinase binding panel, qPCR; FLT4; at 10 µM; stronger effect = lower value
SRPK2 = conditions: KINOMEscan 353-kinase binding panel, qPCR, at 10 µM, stronger effect = lower value
[3] = molecular target: STE20-like serine/threonine-protein kinase (Homo sapiens) (UniProt Q9H2G2); conditions: KINOMEscan 353-kinase binding panel, qPCR; SLK; at 10 µM; stronger effect = lower value
STK16 = conditions: KINOMEscan 353-kinase binding panel, qPCR, at 10 µM, stronger effect = lower value
[4] = molecular target: Casein kinase I isoform delta (Homo sapiens) (UniProt P48730); conditions: KINOMEscan 353-kinase binding panel, qPCR; CSNK1D; at 10 µM; stronger effect = lower value
p38-delta = conditions: KINOMEscan 353-kinase binding panel, qPCR, at 10 µM, stronger effect = lower value
[5] = molecular target: Uncharacterized serine/threonine-protein kinase SBK3 (Homo sapiens) (UniProt P0C264); conditions: KINOMEscan 353-kinase binding panel, qPCR; SgK110; at 10 µM; stronger effect = lower value
PIK3CG = conditions: KINOMEscan 353-kinase binding panel, qPCR, at 10 µM, stronger effect = lower value
RPS6KA1(Kin.Dom.2) = conditions: KINOMEscan 353-kinase binding panel, qPCR, at 10 µM, stronger effect = lower value
[6] = molecular target: Ribosomal protein S6 kinase alpha-3 (Homo sapiens) (UniProt P51812); conditions: KINOMEscan 353-kinase binding panel, qPCR; RPS6KA3(Kin.Dom.1); at 10 µM; stronger effect = lower value
RIOK3 = conditions: KINOMEscan 353-kinase binding panel, qPCR, at 10 µM, stronger effect = lower value
ERK5 = conditions: KINOMEscan 353-kinase binding panel, qPCR, at 10 µM, stronger effect = lower value
[7] = molecular target: Dual specificity tyrosine-phosphorylation-regulated kinase 1B (Homo sapiens) (UniProt Q9Y463); conditions: KINOMEscan 353-kinase binding panel, qPCR; DYRK1B; at 10 µM; stronger effect = lower value
[8] = molecular target: Mitogen-activated protein kinase 14 (Homo sapiens) (UniProt Q16539); conditions: KINOMEscan 353-kinase binding panel, qPCR; p38-alpha; at 10 µM; stronger effect = lower value
[9] = molecular target: Platelet-derived growth factor receptor alpha (Homo sapiens) (UniProt P16234); conditions: KINOMEscan 353-kinase binding panel, qPCR; PDGFRA; at 10 µM; stronger effect = lower value
CHEK2 = conditions: KINOMEscan 353-kinase binding panel, qPCR, at 10 µM, stronger effect = lower value
RPS6KA2(Kin.Dom.2) = conditions: KINOMEscan 353-kinase binding panel, qPCR, at 10 µM, stronger effect = lower value
ARK5 = conditions: KINOMEscan 353-kinase binding panel, qPCR, at 10 µM, stronger effect = lower value
YANK3 = conditions: KINOMEscan 353-kinase binding panel, qPCR, at 10 µM, stronger effect = lower value
TESK1 = conditions: KINOMEscan 353-kinase binding panel, qPCR, at 10 µM, stronger effect = lower value
MKNK1 = conditions: KINOMEscan 353-kinase binding panel, qPCR, at 10 µM, stronger effect = lower value
AURKC = conditions: KINOMEscan 353-kinase binding panel, qPCR, at 10 µM, stronger effect = lower value
PFTK1 = conditions: KINOMEscan 353-kinase binding panel, qPCR, at 10 µM, stronger effect = lower value
[10] = molecular target: Cyclin-dependent kinase 2 (Homo sapiens) (UniProt P24941); conditions: KINOMEscan 353-kinase binding panel, qPCR; CDK2; at 10 µM; stronger effect = lower value
PCTK3 = conditions: KINOMEscan 353-kinase binding panel, qPCR, at 10 µM, stronger effect = lower value
[11] = molecular target: Tyrosine-protein kinase Blk (Homo sapiens) (UniProt P51451); conditions: KINOMEscan 353-kinase binding panel, qPCR, at 10 µM, stronger effect = lower value
DDR1 = conditions: KINOMEscan 353-kinase binding panel, qPCR, at 10 µM, stronger effect = lower value
PCTK2 = conditions: KINOMEscan 353-kinase binding panel, qPCR, at 10 µM, stronger effect = lower value
[12] = molecular target: Macrophage colony-stimulating factor 1 receptor (Homo sapiens) (UniProt P07333); conditions: KINOMEscan 353-kinase binding panel, qPCR; CSF1R; at 10 µM; stronger effect = lower value
[13] = molecular target: Serine/threonine-protein kinase 33 (Homo sapiens) (UniProt Q9BYT3); conditions: KINOMEscan 353-kinase binding panel, qPCR; STK33; at 10 µM; stronger effect = lower value
EPHA6 = conditions: KINOMEscan 353-kinase binding panel, qPCR, at 10 µM, stronger effect = lower value
PIP5K1A = conditions: KINOMEscan 353-kinase binding panel, qPCR, at 10 µM, stronger effect = lower value
DLK = conditions: KINOMEscan 353-kinase binding panel, qPCR, at 10 µM, stronger effect = lower value
[14] = molecular target: Serine/threonine-protein kinase PAK 5 (Homo sapiens) (UniProt Q9P286); conditions: KINOMEscan 353-kinase binding panel, qPCR; PAK7/PAK5; at 10 µM; stronger effect = lower value
EPHB3 = conditions: KINOMEscan 353-kinase binding panel, qPCR, at 10 µM, stronger effect = lower value

Measured: percent of control binding

STE20-like serine/threonine-protein kinase (Homo sapiens), sequence (Q9H2G2 whole entry, looked up): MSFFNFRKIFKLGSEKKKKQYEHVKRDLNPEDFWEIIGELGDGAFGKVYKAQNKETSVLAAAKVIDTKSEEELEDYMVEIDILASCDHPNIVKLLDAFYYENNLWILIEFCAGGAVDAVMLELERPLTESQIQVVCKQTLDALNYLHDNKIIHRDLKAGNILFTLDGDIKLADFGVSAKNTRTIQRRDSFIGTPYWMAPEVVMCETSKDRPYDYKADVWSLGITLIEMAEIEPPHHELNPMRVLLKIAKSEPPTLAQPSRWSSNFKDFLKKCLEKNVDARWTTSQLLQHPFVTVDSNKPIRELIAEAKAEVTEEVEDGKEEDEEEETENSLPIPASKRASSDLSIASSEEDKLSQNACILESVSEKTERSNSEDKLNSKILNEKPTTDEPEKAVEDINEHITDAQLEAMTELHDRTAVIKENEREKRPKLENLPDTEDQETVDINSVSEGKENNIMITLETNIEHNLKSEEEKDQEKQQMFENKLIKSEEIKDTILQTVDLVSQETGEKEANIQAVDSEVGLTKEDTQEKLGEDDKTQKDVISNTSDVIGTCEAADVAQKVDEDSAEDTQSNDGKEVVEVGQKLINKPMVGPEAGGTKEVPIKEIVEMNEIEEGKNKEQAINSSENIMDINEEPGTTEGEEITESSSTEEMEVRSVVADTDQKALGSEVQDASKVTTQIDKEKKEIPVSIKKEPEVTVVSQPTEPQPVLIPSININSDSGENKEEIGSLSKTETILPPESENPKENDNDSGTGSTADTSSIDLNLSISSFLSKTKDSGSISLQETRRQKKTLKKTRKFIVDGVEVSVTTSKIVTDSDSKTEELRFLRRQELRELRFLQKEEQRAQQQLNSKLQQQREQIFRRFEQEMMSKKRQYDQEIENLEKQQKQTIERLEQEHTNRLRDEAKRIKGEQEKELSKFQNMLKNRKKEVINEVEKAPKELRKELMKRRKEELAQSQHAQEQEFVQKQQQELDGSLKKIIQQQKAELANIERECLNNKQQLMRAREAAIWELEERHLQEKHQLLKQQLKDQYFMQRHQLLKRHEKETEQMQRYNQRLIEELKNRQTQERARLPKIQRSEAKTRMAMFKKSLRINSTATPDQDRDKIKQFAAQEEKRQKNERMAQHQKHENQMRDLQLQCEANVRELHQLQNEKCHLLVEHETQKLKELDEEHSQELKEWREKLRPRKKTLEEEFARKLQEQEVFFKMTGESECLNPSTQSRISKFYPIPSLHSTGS
Serine/threonine-protein kinase D1 (Homo sapiens), sequence (Q15139 whole entry, looked up): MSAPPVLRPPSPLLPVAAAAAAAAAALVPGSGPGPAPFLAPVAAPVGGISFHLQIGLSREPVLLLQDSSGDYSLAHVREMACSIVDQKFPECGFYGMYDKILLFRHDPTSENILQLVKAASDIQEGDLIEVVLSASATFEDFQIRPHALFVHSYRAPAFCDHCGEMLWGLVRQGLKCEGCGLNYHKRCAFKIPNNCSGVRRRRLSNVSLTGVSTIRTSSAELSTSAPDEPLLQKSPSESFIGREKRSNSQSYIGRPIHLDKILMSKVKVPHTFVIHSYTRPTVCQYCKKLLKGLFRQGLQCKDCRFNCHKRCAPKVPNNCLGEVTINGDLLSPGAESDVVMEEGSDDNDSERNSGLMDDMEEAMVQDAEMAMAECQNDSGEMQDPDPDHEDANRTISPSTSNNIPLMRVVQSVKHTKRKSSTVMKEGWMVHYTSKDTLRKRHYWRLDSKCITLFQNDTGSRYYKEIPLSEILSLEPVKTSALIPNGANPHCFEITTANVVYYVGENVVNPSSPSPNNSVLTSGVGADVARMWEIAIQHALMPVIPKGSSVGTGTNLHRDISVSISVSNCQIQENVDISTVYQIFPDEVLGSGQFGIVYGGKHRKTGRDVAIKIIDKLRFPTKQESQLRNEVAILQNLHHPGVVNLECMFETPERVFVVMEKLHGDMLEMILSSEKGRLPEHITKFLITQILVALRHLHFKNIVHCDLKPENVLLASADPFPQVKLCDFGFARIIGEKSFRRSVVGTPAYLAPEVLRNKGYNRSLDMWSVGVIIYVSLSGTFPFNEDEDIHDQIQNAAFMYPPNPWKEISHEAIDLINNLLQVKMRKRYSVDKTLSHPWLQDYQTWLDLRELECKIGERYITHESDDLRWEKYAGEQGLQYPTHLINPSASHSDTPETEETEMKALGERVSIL
Casein kinase I isoform delta (Homo sapiens), sequence (P48730 whole entry, looked up, canonical isoform): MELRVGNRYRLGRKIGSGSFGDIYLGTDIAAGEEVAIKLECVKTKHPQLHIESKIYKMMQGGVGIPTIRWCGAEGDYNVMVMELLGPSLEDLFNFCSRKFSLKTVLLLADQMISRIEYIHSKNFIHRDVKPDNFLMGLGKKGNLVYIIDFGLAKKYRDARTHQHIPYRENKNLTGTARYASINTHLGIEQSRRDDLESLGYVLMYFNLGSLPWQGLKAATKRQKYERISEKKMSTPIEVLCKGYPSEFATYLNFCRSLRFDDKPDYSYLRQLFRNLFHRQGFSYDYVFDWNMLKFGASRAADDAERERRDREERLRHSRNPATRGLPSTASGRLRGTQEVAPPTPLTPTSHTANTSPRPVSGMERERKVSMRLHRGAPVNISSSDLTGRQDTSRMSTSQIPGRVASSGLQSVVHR
Ribosomal protein S6 kinase alpha-3 (Homo sapiens), sequence (P51812 whole entry, looked up): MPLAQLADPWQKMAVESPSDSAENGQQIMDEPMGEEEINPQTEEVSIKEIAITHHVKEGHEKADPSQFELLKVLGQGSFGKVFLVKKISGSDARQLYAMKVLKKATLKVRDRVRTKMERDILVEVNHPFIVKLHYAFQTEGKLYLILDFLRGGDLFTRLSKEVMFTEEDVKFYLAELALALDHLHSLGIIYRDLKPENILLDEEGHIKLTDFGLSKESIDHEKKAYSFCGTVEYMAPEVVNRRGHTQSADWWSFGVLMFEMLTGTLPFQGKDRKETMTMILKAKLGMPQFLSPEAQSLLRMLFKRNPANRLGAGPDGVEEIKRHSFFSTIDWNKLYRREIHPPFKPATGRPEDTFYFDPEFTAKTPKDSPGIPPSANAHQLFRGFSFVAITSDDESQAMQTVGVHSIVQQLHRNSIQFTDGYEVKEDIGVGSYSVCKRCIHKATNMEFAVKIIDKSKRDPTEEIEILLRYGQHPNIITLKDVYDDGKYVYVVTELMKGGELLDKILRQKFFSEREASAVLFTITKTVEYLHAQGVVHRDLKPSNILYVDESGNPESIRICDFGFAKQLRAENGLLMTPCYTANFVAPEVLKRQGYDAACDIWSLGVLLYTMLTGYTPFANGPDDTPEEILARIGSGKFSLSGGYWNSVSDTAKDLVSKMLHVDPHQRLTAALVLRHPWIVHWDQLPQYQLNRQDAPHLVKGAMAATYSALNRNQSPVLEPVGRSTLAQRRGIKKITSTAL
Macrophage colony-stimulating factor 1 receptor (Homo sapiens), sequence (P07333 whole entry, looked up): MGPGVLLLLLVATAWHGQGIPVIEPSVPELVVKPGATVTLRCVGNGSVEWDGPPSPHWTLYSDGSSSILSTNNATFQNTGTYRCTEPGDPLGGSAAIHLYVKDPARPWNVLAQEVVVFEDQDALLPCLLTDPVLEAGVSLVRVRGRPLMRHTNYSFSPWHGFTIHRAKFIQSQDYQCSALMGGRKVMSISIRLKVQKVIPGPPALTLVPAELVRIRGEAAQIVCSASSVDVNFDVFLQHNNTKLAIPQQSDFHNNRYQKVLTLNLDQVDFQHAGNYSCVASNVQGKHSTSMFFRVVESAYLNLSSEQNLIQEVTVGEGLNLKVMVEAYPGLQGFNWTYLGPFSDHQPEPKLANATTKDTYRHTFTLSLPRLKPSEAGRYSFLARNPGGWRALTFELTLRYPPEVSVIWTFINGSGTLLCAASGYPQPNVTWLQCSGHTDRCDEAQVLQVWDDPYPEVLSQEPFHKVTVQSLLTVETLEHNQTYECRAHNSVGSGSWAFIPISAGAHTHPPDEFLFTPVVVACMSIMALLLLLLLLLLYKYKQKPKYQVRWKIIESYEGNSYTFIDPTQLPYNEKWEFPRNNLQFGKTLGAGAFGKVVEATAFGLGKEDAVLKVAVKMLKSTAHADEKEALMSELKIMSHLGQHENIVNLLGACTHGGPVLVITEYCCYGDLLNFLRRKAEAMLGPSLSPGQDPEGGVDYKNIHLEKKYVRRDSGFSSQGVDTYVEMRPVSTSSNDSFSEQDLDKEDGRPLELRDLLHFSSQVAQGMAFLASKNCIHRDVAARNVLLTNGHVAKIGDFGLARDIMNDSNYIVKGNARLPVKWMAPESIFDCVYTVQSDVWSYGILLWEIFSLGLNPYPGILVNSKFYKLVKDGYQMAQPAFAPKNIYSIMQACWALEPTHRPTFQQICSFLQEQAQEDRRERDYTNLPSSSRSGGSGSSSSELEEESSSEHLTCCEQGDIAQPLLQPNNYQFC
Tyrosine-protein kinase Blk (Homo sapiens), sequence (P51451 whole entry, looked up): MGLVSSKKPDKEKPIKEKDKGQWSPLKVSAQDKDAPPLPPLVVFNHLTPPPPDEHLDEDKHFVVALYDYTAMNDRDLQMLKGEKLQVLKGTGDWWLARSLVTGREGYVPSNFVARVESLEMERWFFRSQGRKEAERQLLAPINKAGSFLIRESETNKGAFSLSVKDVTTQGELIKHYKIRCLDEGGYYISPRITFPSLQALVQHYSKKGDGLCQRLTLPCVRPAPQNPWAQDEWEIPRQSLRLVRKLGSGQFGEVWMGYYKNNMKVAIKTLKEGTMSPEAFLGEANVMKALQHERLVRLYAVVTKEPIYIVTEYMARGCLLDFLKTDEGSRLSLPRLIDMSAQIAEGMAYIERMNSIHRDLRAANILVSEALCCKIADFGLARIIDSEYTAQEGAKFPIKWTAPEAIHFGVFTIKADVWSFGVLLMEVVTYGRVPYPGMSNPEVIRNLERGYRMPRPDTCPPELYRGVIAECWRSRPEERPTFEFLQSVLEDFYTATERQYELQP

Cc1cc2nc(NCCCO)n(CC(=O)c3cc(C(C)(C)C)c(O)c(C(C)(C)C)c3)c2cc1C
inactive: [1] 100% | [2] 100% | SRPK2 100% | [3] 100% | STK16 77% | [4] 99% | p38-delta 100% | [5] 96% | PIK3CG 86% | RPS6KA1(Kin.Dom.2) 93% | [6] 92% | RIOK3 100% | ERK5 100% | [7] 91% | [8] 96% | [9] 86% | CHEK2 100% | RPS6KA2(Kin.Dom.2) 100% | ARK5 100% | YANK3 100% | TESK1 89% | MKNK1 75% | AURKC 100% | PFTK1 88% | [10] 95% | PCTK3 82% | [11] 99% | DDR1 100% | PCTK2 99% | [12] 72% | [13] 98% | EPHA6 93% | PIP5K1A 77% | DLK 82% | [14] 79% | EPHB3 86%
